Assays:
[1] = system: AKT; settings: SMA mice, oral treatment
[2] = system: SMN protein; type: in vivo, mice; settings: oral treatment
[3] = system: SMA-like mice; test: Body weight of SMA-like mice; type: in vivo; settings: oral treatment
Method: The knockout-transgenic SMA-like mice (Smn^−/−, SMN2^+/+) were purchased from the Jackson Laboratory (Bar Harbor, Me.) and genotyped as previously described^15. […] The control mice were heterozygous knock-out for Smn with the human SMN2 transgene (Smn^−/+, to SMN2^+/+). […] These mice were compared to control and SMA-like mice either injected from P1 with 0.5 μl/g of 0.9% NaCl 1% DMSO dyed in blue Evans or orally treated with 2 μl/g of 0.9% NaCl 1% DMSO. Body weight and life span recordings were performed every day until the death of the animal. The animals were considered as dead when mice were no longer able to stand up 20 sec after having been placed on their sides.

[4] = system: SMA-like mice; test: Life span of severe SMA-like mice; type: in vivo; settings: oral treatment
[5] = system: SMN transcripts; settings: very severe SMA-like mice; splicing pattern not modified; cited from earlier work
[6] = system: SMN2 promoter CRE sites 1 and 2; test: ChIP of Phospho-Elk-1 and Phospho-CREB on SMN2 promoter CRE sites in ventral lumbar spinal cord; type: in vivo, mice; settings: SMA spinal cords, intrathecal NMDA
Excerpt: The knockout-transgenic SMA-like mice (Smn^−/−, SMN2^+/+) were purchased from the Jackson Laboratory (Bar Harbor, Me.) and genotyped as previously described^15. Vehicle-treated group, NMDA-treated group, U0126-treated group and AZD6244-treated group of type 1 SMA-like mice were randomly constituted in a blind systematic manner to minimize bias. The control mice were heterozygous knock-out for Smn with the human SMN2 transgene (Smn^−/+, to SMN2^+/+).
In order to evaluate phospho-Elk-1 and phospho-CREB role on Smn2 promoter, P1 neonatal control and SMA-like mice, were either injected intrathecally with 5 pmol of N-methyl-D-aspartic Acid 100 μM (NMDA, Sigma, Saint Quentin Fallavier, France) in 0.5 μl/g of 0.9% NaCl dyed in blue Evans per gram. […]
Ventral lumbar Spinal Cord samples were chopped into small pieces with a scalpel and were fixed for 15 min with 1% formaldehyde. […] Lysates were cleared by centrifugation and DNA concentration was determined using a nanodrop spectrophotometer. […]
Quantitative real time PCR was performed with standard protocols using SYBR®Green ROX Mix (ABgene, Courtaboeuf, France) as a fluorescent detection dye in ABI PRISM® 7000 in a final volume of 10 μl which also contains 300 nM of primers (Operon, Cologne, Germany)
The relative amounts of DNA in samples were determined on the basis of the threshold cycle for each PCR product (Ct).

Structure (SMILES) | AKT activation [1] | SMN expression in the spinal cord of SMA mice [2] | body weight [3] | life span of SMA mice [4] | total amount of SMN transcripts in the SMA spinal cord [5] | ratio of CREB and Elk-1 binding on the CRE sites [6]
Cn1cnc2c(F)c(Nc3ccc(Br)cc3Cl)c(C(=O)NOCCO)cc21 [Selumetinib, 6-(4-bromo-2-chloroanilino)-7-fluoro-N-(2-hydroxyethoxy)-3-methylbenzimidazole-5-carboxamide] | activation | activation | progressive gain | remarkable increase |  | 
CN[C@H](CC(=O)O)C(=O)O [NMDA, N-methyl-D-aspartic Acid] |  |  |  |  | increased | completely reversed

— patent US9833439B2, “ERK inhibitors for use in treating spinal muscular atrophy” (UNIVERSITE PARIS DESCARTES, priority 2011, dated 2017)
